Source: patent US20110104301A1, “METHODS OF REDUCING PAIN AND INFLAMMATION” (Georgetown University, A Congressionally Chartered …, priority 2008, published 2011)

Assays:
dTRPA1-mN chimera = molecular target: T1, dTRPA1-mN chimera (UniProt Q7Z020+Q8BLA8); assay: Current-voltage recordings of chimera dTRPA1-mN; type: cell-based; conditions: mouse N-terminus substituted
T1 construct: mouse TRPA1 N-terminus (720 amino acids); expressed in transfected cells
Description: (§1) A genetic approach was used to identify critical sites in TRPA1 and TRPV1 required for activation by general anesthetics. Drosophila TRPA1 is insensitive to desflurane (at concentrations up to 3 mM). […] Note that dTRPA1 is insensitive to AITC. Next, several chimeric TRP proteins containing dTRPA1 (unresponsive to desflurane) and mTRPA1 were tested. For the dTRPA1-mN chimera, the mouse 720 amino acid N-terminus was exchanged for the drosophila N-terminus. The N-terminal domain contains essential binding sites for AITC, and therefore studying this chimera tests an important role for the N-terminus in anesthetic-sensing. […] The mTRPA1-dTM5 construct was then studied, which is the mouse protein containing the fifth transmembrane domain of the drosophila protein.

Drosophila TRPA1 = molecular target: T2, Drosophila TRPA1 (Drosophila melanogaster, UniProt Q7Z020); assay: Current-voltage recordings in dTRPA1-expressing HEK293 cells; type: cell-based; conditions: desflurane at concentrations up to 3 mM
T2 construct: expressed in transfected cells; host or cells: HEK293
T2 sequence (Q7Z020 1-1197): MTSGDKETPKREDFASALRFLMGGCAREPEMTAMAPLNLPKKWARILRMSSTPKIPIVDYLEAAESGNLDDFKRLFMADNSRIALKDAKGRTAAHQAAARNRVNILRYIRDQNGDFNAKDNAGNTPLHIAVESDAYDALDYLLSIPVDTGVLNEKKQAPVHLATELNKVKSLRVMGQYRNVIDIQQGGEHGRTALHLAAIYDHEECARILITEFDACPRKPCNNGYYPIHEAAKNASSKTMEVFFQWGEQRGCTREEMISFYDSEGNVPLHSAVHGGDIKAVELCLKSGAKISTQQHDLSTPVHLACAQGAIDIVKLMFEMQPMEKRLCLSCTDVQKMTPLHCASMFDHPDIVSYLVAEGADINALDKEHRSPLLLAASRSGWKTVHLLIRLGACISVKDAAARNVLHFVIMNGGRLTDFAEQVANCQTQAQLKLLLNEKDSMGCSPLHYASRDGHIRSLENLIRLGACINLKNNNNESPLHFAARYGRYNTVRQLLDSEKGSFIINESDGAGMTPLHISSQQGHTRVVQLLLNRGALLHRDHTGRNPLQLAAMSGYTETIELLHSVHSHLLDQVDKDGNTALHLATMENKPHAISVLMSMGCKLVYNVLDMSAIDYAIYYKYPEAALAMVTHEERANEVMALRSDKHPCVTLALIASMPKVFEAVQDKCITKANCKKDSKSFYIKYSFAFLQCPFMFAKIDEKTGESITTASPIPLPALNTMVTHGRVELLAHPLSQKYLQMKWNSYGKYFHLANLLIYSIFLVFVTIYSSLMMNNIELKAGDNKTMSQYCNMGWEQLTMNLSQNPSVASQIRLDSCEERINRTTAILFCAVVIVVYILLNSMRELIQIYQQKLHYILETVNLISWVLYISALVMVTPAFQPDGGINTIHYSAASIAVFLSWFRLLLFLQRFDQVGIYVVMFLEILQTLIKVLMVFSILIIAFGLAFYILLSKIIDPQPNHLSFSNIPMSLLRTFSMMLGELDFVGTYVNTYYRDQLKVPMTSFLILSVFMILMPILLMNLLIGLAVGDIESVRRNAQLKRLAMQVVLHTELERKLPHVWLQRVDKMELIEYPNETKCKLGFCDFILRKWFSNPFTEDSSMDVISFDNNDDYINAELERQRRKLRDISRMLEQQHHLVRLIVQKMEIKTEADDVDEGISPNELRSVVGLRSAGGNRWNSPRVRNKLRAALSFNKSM
Description: as §1

[1] = system: AITC-sensitive DRG neurons; assay: Voltage- and current-clamp of DRG sensory neurons; type: cell-based, mouse; conditions: 10 of 11 cells
Description: Electrophysiology. HEK 293F cells were transfected with rat TRPV1, TRPA1, and TRPM8 (gift of David Julius, University of California, San Francisco). Dorsal root ganglia were cultured from adult mice (C57B16/J wild type and TRPV1-null, and mixed B6/129 background TRPA1-null) in Neurobasal +2% B-27 medium (Invitrogen), 0.1% L-glutamine and 1% penicillin/streptomycin. Whole-cell and single-channel patch-clamp recordings were performed by using an EPC8 amplifier (HEKA Electronics). For whole-cell and excised patch recordings the bath solution contained 140 mMNaCl, 4 mMKCl, 1 mMMgCl2, 1.2 mMCaCl2, 10 mMHepes, 10 mM glucose, pH 7.3. For cell-attached experiments, NaCl was replaced with KCl in the bath solution. The pipette solution contained 140 mM NaCl or KCl, 10 mM Hepes, 5 mM EGTA, pH 7.3. For neuronal recording NaCl was replaced with K-gluconate (plus 1 mMATP, 0.2 mM GTP). Solutions were applied via a gravity-fed system. Separate outlets were used to apply capsaicin and AITC solutions to avoid contamination. Voltage-dependent properties were measured as described in Matt and Ahern, J. Physiol. 585:469-482 (2007). Current-voltage measurements comprised a 200-ms ramp from −150 mV to +200 mV. The baseline currents under control conditions were subtracted. For cell-attached experiments, peak amplitudes were measured from all-points histograms, and open probability was measured as NPo>750 ms. Defolliculated Xenopus laevis oocytes were injected with ≈10 ng of hTRPA1 (gift of Ardem Patapoutian, The Scripps Research Institute, La Jolla, Calif.). Oocytes were placed in a Perspex chamber and continuously superfused (5 ml min^−1) with Ca^2+-free solution containing 100 mM NaCl, 2.5 mM KCl, 5 mM Hepes, 1 mM MgC12 and titrated to pH 7.3 with ˜5 mM NaOH.

TRPV1 = TRPV1 (Rattus norvegicus, UniProt O35433); assay: Voltage-clamp of TRPV1-expressing Xenopus oocytes (capsaicin, protons, heat); type: cell-based; conditions: PDBu 200 nM, 3 minutes
Chain of TRPV1 (O35433 whole entry, the tested form may be a part): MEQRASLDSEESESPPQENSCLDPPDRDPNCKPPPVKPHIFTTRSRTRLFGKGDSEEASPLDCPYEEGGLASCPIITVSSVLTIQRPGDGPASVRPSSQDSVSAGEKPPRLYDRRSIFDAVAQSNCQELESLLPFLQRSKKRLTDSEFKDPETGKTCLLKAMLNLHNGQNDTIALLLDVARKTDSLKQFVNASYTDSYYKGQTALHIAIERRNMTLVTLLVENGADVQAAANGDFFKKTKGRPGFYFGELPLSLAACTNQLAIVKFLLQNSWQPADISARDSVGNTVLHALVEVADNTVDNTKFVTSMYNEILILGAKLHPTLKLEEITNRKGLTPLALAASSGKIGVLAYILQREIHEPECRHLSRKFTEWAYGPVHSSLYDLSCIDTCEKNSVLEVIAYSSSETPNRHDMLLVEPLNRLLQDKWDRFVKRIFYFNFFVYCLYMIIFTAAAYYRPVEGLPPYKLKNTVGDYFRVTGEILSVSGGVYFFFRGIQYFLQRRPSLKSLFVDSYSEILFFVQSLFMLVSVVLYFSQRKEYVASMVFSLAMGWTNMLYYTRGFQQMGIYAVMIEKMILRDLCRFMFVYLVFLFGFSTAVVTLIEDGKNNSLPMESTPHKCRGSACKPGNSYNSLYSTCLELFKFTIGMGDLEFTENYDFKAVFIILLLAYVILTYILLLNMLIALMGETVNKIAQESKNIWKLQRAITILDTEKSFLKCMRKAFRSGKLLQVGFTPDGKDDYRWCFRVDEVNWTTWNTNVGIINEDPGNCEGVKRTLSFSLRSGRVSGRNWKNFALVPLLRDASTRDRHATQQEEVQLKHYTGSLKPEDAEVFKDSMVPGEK
Description: Oocyte electrophysiology. […] Oocytes were placed in a Perspex chamber and continuously superfused (5 ml min-1) with Ca2+-free solution containing (in mM): 100 NaCl, 2.5 KCl, 5 HEPES, 1 MgCl2 and titrated to pH 7.3 with ˜5 mM NaOH. For solutions <pH 6.0, HEPES was replaced with either 5 mM MES or 5 mM sodium citrate. Oocytes were routinely voltage-clamped at −60 mV at 22-23° C. For heat activation, bath temperature was raised from ˜22-50° C. over ˜100 s using an in-line solution heater (Warner Instruments). The temperature was continuously monitored with a probe placed within 2 mm of the oocyte. The temperature-activation threshold was defined as a 20% increase in current above baseline.
Volatile general anesthetics. Saturated stock solutions of volatile general anesthetics (VGAs) were prepared in gas-tight bottles by dissolving excess anesthetic agents in bath solutions and stirring vigorously overnight. From these stock solutions fresh dilutions were made up every 40-60 minutes. Concentrations of volatile anesthetics in the bath solutions were verified using a modified head-space gas chromatography method. The gas chromatograph (Carlo Erba, Milan, Italy) was equipped with a flame ionization detector (FID) and mass spectrometer. The carrier gas was hydrogen (60 kPa column head pressure) and the fused silica capillary column, coated with polysiloxane SE-30, was 25 m×0.25 mm. Injector temperature was 250° C., FID temperature was 300° C. and the oven was maintained at 90° C. Standards were prepared from a mixture of halothane, isoflurane, and sevoflurane dissolved in acetonitrile with enflurane as an internal standard.

mutant S502A/S800A TRPV1 = molecular target: T3, mutant S502A/S800A TRPV1 (Rattus norvegicus, UniProt O35433, S502A/S800A); assay: Heat activation in oocytes expressing mutant S502A/S800A TRPV1; type: cell-based
T3 construct: expressed in transfected cells; host or cells: Xenopus laevis oocytes (cRNA injection)
T3 sequence (O35433 whole entry S502A/S800A): as the sequence (O35433 whole entry, the tested form may be a part) above, with S502A, S800A counted along it
Description: Oocyte electrophysiology. […] Oocytes were placed in a Perspex chamber and continuously superfused (5 ml min-1) with Ca2+-free solution containing (in mM): 100 NaCl, 2.5 KCl, 5 HEPES, 1 MgCl2 and titrated to pH 7.3 with 5 mM NaOH. For solutions <pH 6.0, HEPES was replaced with either 5 mM MES or 5 mM sodium citrate. Oocytes were routinely voltage-clamped at -60 mV at 22-23° C.

T1 sequence (Q8BLA8+Q7Z020 fused, change not shown): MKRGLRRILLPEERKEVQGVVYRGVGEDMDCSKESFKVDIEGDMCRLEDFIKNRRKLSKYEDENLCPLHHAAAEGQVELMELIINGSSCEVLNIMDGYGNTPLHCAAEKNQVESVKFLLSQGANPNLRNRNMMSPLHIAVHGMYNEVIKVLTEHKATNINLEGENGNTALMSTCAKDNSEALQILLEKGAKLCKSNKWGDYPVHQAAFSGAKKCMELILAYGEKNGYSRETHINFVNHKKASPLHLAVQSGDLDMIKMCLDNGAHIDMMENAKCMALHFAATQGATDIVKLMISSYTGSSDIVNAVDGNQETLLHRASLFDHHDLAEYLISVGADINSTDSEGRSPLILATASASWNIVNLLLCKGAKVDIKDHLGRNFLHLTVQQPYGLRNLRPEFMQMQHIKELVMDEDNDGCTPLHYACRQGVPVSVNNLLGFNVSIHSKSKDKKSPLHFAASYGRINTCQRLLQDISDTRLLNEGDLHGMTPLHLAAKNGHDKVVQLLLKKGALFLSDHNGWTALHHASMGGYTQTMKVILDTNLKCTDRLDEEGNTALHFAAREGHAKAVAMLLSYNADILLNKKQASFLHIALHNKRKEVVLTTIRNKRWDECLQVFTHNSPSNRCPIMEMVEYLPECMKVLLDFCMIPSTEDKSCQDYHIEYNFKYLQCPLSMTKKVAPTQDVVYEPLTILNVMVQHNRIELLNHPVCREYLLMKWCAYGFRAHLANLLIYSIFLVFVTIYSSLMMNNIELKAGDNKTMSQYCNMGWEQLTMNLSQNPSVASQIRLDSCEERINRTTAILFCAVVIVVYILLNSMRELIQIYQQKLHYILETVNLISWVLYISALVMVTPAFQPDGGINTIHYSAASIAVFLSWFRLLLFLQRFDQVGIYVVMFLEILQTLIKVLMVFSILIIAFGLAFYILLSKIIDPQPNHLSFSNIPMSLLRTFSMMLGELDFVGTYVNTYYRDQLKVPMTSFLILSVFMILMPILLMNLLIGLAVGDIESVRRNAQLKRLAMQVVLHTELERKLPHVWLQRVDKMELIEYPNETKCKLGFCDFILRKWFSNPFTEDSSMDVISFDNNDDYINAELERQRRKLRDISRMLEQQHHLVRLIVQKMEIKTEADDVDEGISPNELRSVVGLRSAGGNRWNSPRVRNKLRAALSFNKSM

Q: Which results are given for `C=CCN=C=S` [AITC]?
A: Response of dTRPA1-mN chimera (dTRPA1-mN chimera): conferred AITC-sensitivity; Sensitivity of Drosophila TRPA1 (Drosophila TRPA1): insensitive; Isoflurane-responsive neurons also sensitive to AITC [1]: 91%

Q: Which results are given for `CCCC(=O)O[C@@H]1[C@@H](C)[C@@]2(O)[C@@H](C=C(CO)C[C@]3(O)C(=O)C(C)=C[C@@H]23)[C@@H]2C(C)(C)[C@]12OC(=O)CCC` [PDBu, phorbol 12, 13 dibutyrate]?
A: Temperature threshold of TRPV1 heat activation, PDBu alone (TRPV1): 39.3±2.3 °C; Effect of PDBu in oocytes expressing mutant TRPV1 (mutant S502A/S800A TRPV1): did not produce a significant effect
